Our source for the IC80 and melting point values is patent US7737166B2, “Antifungal bicyclic hetero ring compounds” (Daiichi Sankyo Company, Limited, priority 2005, dated 2010).

≈ marks a conversion by molar mass, not a printed value.

The test system of one data set is C. albicans ATCC MYA-573. The experiment in a line: Antifungal activity (GI80), growth inhibition in YPD20 medium by absorbance at 600 nm. Format: cell-based. As to conditions: Candida albicans, minimum concentration for at least 80% cell growth inhibition, 37° C., absorbance 600 nm, read-out: GI80 (μg/ml) C. albicans ATCC MYA-573. In a few lines:
(§1)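 Cells grown overnight on Sabouraud dextrose agar at 30° C were inoculated at 5×10^3 cells/ml into YPD20-type medium with 2-fold DMSO compound dilutions. Aerobic static culture at 37° C for […], then A600 read; GI80 is the lowest concentration giving ≥80% growth inhibition versus compound-free wells.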

The next data set deals with C. albicans ATCC90028. Described as above. The class given is cell-based. As to conditions: Candida albicans, ATCC90028, minimum concentration for at least 80% cell growth inhibition, 37° C., absorbance 600 nm, read-out: GI80 (μg/ml) C. albicans ATCC90028. In a few lines: as §1
The subject of another data set is C. glabrata ATCC48435. The data set is described as above. As to conditions: Nakaseomyces glabratus, ATCC48435, minimum concentration for at least 80% cell growth inhibition, 37° C., absorbance 600 nm, read-out: GI80 (μg/ml) C. glabrata ATCC48435. The class given is cell-based. An outline of the steps: as §1

By melting point is commonly meant the temperature, or range, at which the solid turns liquid.

As for `Cc1nc(-c2c(C)c(C#N)c3nc(C(=O)N(C)C)oc3c2N2CC[C@H](N(C)C)C2)cs1` [Example 51, 4-Cyano-7-[(3S)-3-(dimethylamino)pyrrolidin-1-yl]-N,N,5-trimethyl-6-(2-methyl-1,3-thiazol-4-yl)-1,3-benzoxazole-2-carboxamide], the melting point lay within 153 to 156 °C. Further, the IC80 in the data set with C. albicans ATCC MYA-573 turned out to be 1 µg/mL (≈ 2.28 µM). For the same compound, the IC80 in the data set on C. albicans ATCC90028 was found to be 1 µg/mL (≈ 2.28 µM). For the same compound, the IC80 with C. glabrata ATCC48435 came to 0.25 µg/mL (≈ 0.57 µM).
Compound `Cc1c(-c2ccccc2)c(N2CC[C@H](N(C)C)C2)c2oc(N3CC(CO)C3)nc2c1C#N` [Example 98, 7-[(3S)-3-(Dimethylamino)pyrrolidin-1-yl]-2-[3-(hydroxymethyl)azetidin-1-yl]-5-methyl-6-phenyl-1,3-benzoxazole-4-carbonitrile] registered a melting point of 48 to 51 °C. Moreover, in the data set on C. albicans ATCC MYA-573, the IC80 was determined as 0.5 µg/mL (≈ 1.16 µM). Besides, the IC80 in the data set with C. albicans ATCC90028 amounted to 0.5 µg/mL (≈ 1.16 µM). Also, the IC80 with C. glabrata ATCC48435 is 0.125 µg/mL (≈ 0.29 µM).
The compound `Cc1c(-c2ccccc2N)c(N2CC[C@H](N(C)C)C2)c2oc(C3CC3)nc2c1C#N` [Example 144-13, 6-(2-Aminophenyl)-2-cyclopropyl-7-[(3S)-3-(dimethylamino)pyrrolidin-1-yl]-5-methyl-1,3-benzoxazole-4-carbonitrile] had a melting point of 191 to 194 °C. In addition, the IC80 in the data set on C. albicans ATCC MYA-573 turned out to be 1 µg/mL (≈ 2.49 µM). Further, the IC80 in the data set with C. albicans ATCC90028 was determined as 1 µg/mL (≈ 2.49 µM). The IC80 in the data set with C. glabrata ATCC48435 was 0.5 µg/mL (≈ 1.25 µM).
On to `Cc1c(-c2ccccc2)c(N2CC[C@H](N(C)C)C2)c2oc(C(C)(C)F)nc2c1C#N` [Example 148, 7-[(3S)-3-(Dimethylamino)pyrrolidin-1-yl]-2-(1-fluoro-1-methylethyl)-5-methyl-6-phenyl-1,3-benzoxazole-4-carbonitrile], for which the melting point was in the range of 130 to 132 °C. The IC80 in the data set with C. albicans ATCC MYA-573 stood at 0.063 µg/mL (≈ 0.155 µM). In the data set with C. albicans ATCC90028, the IC80 worked out at 0.032 µg/mL (≈ 0.0787 µM). In the data set on C. glabrata ATCC48435, the IC80 is < 0.016 µg/mL.
Taken in the same sequence, the figures for `CN[C@@]1(C)CCN(c2c(-c3ccccc3)c(C)c(C#N)c3nc(C(=O)N(C)C)oc23)C1` [Example 159, 4-Cyano-N,N,5-trimethyl-7-[(3S)-3-methyl-3-(methylamino)pyrrolidin-1-yl]-6-phenyl-1,3-benzoxazole-2-carboxamide] were 172 to 174 °C, 0.063 µg/mL (≈ 0.151 µM), 0.063 µg/mL (≈ 0.151 µM) and < 0.016 µg/mL.
